Data on 1 compound can be found in patent US8519007B2, “Use certain diterpene compounds in the treatment of androgen receptor-associated diseases” (Academia Sinica, priority 2008, dated 2013).

For experiment [1], the target named is T1, androgen receptor (Homo sapiens, UniProt P10275).
T1 sequence (P10275 with tags, fused parts or gaps DUP590-628/H875Y): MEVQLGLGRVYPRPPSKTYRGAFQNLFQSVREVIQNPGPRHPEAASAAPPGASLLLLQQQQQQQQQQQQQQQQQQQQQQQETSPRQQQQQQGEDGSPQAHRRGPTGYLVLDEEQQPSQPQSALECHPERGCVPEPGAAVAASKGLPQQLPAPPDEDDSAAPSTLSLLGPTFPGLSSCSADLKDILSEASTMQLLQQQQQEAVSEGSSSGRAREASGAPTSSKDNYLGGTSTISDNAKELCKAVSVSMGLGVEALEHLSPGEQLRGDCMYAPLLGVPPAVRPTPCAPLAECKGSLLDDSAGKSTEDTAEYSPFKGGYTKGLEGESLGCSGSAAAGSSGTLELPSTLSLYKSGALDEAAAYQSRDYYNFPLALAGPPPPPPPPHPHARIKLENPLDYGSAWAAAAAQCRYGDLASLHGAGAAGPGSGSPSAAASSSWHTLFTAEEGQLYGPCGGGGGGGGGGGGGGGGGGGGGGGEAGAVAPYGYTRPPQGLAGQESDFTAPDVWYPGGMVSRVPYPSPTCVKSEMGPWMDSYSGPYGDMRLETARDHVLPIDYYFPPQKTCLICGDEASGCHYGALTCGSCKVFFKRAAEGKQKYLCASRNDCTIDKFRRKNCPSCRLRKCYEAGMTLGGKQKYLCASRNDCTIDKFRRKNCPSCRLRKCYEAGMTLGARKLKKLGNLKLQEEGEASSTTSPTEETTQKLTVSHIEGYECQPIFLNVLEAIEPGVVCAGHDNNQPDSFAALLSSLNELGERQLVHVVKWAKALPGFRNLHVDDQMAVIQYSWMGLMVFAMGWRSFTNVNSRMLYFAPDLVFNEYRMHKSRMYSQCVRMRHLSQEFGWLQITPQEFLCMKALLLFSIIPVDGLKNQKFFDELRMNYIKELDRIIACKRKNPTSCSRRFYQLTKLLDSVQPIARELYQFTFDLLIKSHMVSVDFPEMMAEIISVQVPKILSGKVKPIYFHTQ
The experiment can be described thus: PSA promoter luciferase reporter assay in 103E cells (AR transcriptional activity).
Protocol: PC-3 and NIH-3T3 were cultured in DMEM (Hyclone) supplemented with 10% FBS. Cultures were maintained in a humidified incubator at 37° C. in 5% CO2/air.
Cells were treated with various compounds for a period of 20 h and luciferase activity was measured using a luciferase reporter gene assay system (Promega).

The target in experiment [2] is T2, AR-LBD (Homo sapiens, UniProt P10275).
T2 construct: expressed in transfected cells; host or cells: 22Rv1
T2 sequence (P10275 669-900 limits assumed): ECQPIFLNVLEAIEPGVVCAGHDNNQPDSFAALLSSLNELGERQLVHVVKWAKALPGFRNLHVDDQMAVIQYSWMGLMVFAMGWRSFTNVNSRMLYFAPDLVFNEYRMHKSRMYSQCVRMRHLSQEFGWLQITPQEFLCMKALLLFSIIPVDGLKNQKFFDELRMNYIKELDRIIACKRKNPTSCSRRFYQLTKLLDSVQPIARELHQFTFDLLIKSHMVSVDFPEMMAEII
The experiment can be described thus: One-hybrid assay (GBD-AR-LBD) in 22Rv1 cells. The experiment is classed as cell-based. Particulars: 10 nM DHT, 20 h. The method, then:
The molecular mechanism whereby HDHS represses AR activity was analyzed by the following experiments. […] The transfected cells were treated with vehicle or various compounds for another 20 h.

Experiment [3] addresses T3, AR (Homo sapiens, UniProt P10275, T878A).
T3 construct: endogenous in cells; host or cells: LNCaP
T3 sequence (P10275 1-920 T878A): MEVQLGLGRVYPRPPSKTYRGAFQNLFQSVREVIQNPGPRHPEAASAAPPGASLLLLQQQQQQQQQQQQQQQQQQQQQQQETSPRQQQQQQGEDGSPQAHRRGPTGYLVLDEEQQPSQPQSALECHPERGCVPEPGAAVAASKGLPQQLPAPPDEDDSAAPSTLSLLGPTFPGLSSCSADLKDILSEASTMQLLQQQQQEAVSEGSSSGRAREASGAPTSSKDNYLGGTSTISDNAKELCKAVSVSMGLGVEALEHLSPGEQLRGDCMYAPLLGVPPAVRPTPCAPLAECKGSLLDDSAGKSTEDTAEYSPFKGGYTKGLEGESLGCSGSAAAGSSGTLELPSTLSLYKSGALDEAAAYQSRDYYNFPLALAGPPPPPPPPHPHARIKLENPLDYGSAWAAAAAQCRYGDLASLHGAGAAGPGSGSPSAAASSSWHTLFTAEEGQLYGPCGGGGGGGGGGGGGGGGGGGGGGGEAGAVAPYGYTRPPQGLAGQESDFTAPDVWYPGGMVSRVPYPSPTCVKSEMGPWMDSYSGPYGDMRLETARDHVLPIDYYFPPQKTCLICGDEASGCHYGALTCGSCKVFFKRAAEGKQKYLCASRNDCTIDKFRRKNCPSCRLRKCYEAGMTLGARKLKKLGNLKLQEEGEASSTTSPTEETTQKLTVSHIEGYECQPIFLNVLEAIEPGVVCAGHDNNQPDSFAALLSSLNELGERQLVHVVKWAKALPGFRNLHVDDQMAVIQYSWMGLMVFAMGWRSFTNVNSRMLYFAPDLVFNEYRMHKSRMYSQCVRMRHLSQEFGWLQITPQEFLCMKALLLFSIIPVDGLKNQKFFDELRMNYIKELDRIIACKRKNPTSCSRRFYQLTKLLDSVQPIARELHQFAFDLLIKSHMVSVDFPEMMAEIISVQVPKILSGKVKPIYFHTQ
Kind of experiment: AR nuclear translocation by confocal immunofluorescence in LNCaP cells. The experiment is classed as cell-based. Particulars: steroid-deprived, 5 to 10 μM, 1 h. The method, then:
Specifically, LNCaP cells were grown in medium containing 5% charcoal-dextran stripped FBS on 12-mm coverslips for 48 h and then treated with vehicle or various compound treatments for another 1 h. Cells were fixed with 4% (v/v) paraformaldehyde on ice for 15 min, permeabilized with 0.2% (v/v) Triton X-100/PBS, and then washed with PBS three times. […] The samples were washed again and mounted in mounting medium (Vector, Burlingame, Calif.). The cellular location of AR was visualized by confocal microscopy (LSM 510 META, Carl Zeiss GmbH, Jena, Germany) and analyzed using the manufacturer's software.

The target in experiment [4] is T4, AR-LBD interaction with the full-length AR (Homo sapiens, UniProt P10275).
T4 construct: expressed in transfected cells; host or cells: PC-3
T4 sequence (P10275 669-900 limits assumed): T2 sequence (P10275 669-900 limits assumed)
The experiment can be described thus: Two-hybrid interaction assay in PC-3 cells. The experiment is classed as cell-based. Particulars: 20 h. As to the method: Second, the AR-LBD interaction with the full-length AR can be detected by a two-hybrid interaction assay in PC-3 cells through transfection of GBD-AR-LBD and AR fused with the VP16 activation domain (AR-VP16). […] The transfected cells were treated with vehicle or various compounds for another 20 h. Luciferase activity was measured using the luciferase reporter gene assay system (Promega, Madison, Wis.) and normalized against respective Renilla luciferase values.

Each structure is given as a SMILES string.

For the compound `CC(C)c1cc2c(cc1O)[C@@]1(C)CCCC(C)(C)C1=C(O)C2=O` [Compound 2, 6,12-dihydroxyabieta-5,8,11,13-tetraen-7-one], in experiment [1] (10 nmol/L DHT, 24 h), the “concentration achieving complete inhibition of PSA promoter activity” value is “greater than 10 μM”. Also, in experiment [1] (maximal inhibition at 10 μM), the “Inhibitionmax (%) of AR activity” value was 101 ± 4% (10 μM). For the same compound, the IC50 in experiment [1] (read-out: IC50 for inhibiting DHT-induced PSA-luciferase reporter, cotreated with 10 nmol/L DHT, 24 h) worked out at 4.8 µM. Also, the “effect on DHT-induction of AR-LBD (one-hybrid luciferase)” value in experiment [2] is “inhibited the AR-LBD dose-dependently”. The AR nuclear localization result in experiment [3] was “significant AR accumulation in the nucleus”. In addition, the “effect on DHT-induced two-hybrid interaction” value in experiment [4] was “competitively inhibited”.
